The structures appear in SMILES notation.

The test concerns the target human APJ receptor (Homo sapiens (Human), UniProt P35414). Kind of test: biochemical. It is filed as biochemical. The following applies: read-out: Activity hAPJ SPA EC50 IP. Summed up:
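Agonist-stimulated [35S]GTPγS (0.2 nM) binding was read by SPA after 90 min at room temperature. Buffer: 20 mM HEPES pH 7.5 with 5 mM MgCl2, 200 mM NaCl, 3 μM GDP, 0.1% BSA; membranes were from a stable human APJ CHO line. EC50 values are averages of independent runs, fitted by non-linear regression.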

Sequence of human APJ receptor (P35414 whole entry): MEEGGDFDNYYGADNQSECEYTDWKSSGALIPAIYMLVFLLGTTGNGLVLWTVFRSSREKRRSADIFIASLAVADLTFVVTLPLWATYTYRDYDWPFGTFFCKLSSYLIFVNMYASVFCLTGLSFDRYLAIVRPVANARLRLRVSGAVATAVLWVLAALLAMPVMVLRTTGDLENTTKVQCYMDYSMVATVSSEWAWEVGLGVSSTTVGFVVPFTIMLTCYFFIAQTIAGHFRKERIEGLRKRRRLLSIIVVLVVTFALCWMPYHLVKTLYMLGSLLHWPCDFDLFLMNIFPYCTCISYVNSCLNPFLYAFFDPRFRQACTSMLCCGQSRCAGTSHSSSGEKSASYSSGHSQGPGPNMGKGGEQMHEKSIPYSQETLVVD

As a reminder, the EC50 is the midpoint of the concentration-response curve. In the case of `COc1ncnc(OC)c1-n1c(NS(=O)(=O)[C@@H]2C[C@@H](OC)CN(c3ncc(F)cn3)C2)nnc1-c1cccnc1` (single isomer, unassigned) [Example 812.0, (3S,5S)—N-(4-(4,6-dimethoxy-5-pyrimidinyl)-5-(3-pyridinyl)-4H-1,2,4-triazol-3-yl)-1-(5-fluoro-2-pyrimidinyl)-5-methoxy-3-piperidinesulfonamide or (3R,5R)—N-(4-(4,6-dimethoxy-5-pyrimidinyl)-5-(3-pyridinyl)-4H-1,2,4-triazol-3-yl)-1-(5-fluoro-2-pyrimidinyl)-5-methoxy-3-piperidinesulfonamide], the 50% effective concentration (EC50) stood at 230 nM.

In the case of `Cc1cnc([C@@H](C)[C@H](C)S(=O)(=O)Nc2nnc(-c3cncc(C)c3)n2-c2c(F)cccc2F)nc1` (single isomer, unassigned) [Example 826.0], the EC50 amounted to 1.7 nM.

With `COc1cccc(-c2nnc(NS(=O)(=O)[C@@H]3CCCN(c4ncc(Cl)cn4)C3)n2-c2c(OC)ncnc2OC)n1` (single isomer, unassigned) [Example 830.0], the EC50 amounted to 14 nM.

Regarding `COc1ncnc(OC)c1-n1c(NS(=O)(=O)[C@@H]2C[C@H](OC)CN(c3ncc(F)cn3)C2)nnc1-c1cccnc1` (stereo in doubt) [Example 813.0, (3S,5R)-N-(4-(4,6-dimethoxy-5-pyrimidinyl)-5-(3-pyridinyl)-4H-1,2,4-triazol-3-yl)-1-(5-fluoro-2-pyrimidinyl)-5-methoxy-3-piperidinesulfonamide, (3R,5S)-N-(4-(4,6-dimethoxy-5-pyrimidinyl)-5-(3-pyridinyl)-4H-1,2,4-triazol-3-yl)-1-(5-fluoro-2-pyrimidinyl)-5-methoxy-3-piperidinesulfonamide], the EC50 was 140 nM.

Consider `COc1ncnc(OC)c1-n1c(NS(=O)(=O)[C@@H]2C[C@H](OC)CN(c3ncc(F)cn3)C2)nnc1-c1cccnc1` (stereo in doubt) [Example 814.0, (3R,5S)-N-(4-(4,6-dimethoxy-5-pyrimidinyl)-5-(3-pyridinyl)-4H-1,2,4-triazol-3-yl)-1-(5-fluoro-2-pyrimidinyl)-5-methoxy-3-piperidinesulfonamide, (3R,5S)-N-(4-(4,6-dimethoxy-5-pyrimidinyl)-5-(3-pyridinyl)-4H-1,2,4-triazol-3-yl)-1-(5-fluoro-2-pyrimidinyl)-5-methoxy-3-piperidinesulfonamide], for which the EC50 was 560 nM.

`COc1ncnc(OC)c1-n1c(NS(=O)(=O)[C@@H]2C[C@@H](OC)CN(c3ncc(F)cn3)C2)nnc1-c1cccnc1` (stereo in doubt) [Example 815.0, (3S,5S)-N-(4-(4,6-dimethoxy-5-pyrimidinyl)-5-(3-pyridinyl)-4H-1,2,4-triazol-3-yl)-1-(5-fluoro-2-pyrimidinyl)-5-methoxy-3-piperidinesulfonamide, (3R,5R)-N-(4-(4,6-dimethoxy-5-pyrimidinyl)-5-(3-pyridinyl)-4H-1,2,4-triazol-3-yl)-1-(5-fluoro-2-pyrimidinyl)-5-methoxy-3-piperidinesulfonamide]: the concentration giving a half-maximal response (EC50) was determined as 170 nM.

As to `COc1cccc(OC)c1-n1c(NS(=O)(=O)[C@@H]2C[C@@H](OC)CN(c3ncc(F)cn3)C2)nnc1-c1cccnc1` (stereo in doubt) [Example 816.0, (3S,5S)-N-(4-(2,6-dimethoxyphenyl)-5-(3-pyridinyl)-4H-1,2,4-triazol-3-yl)-1-(5-fluoro-2-pyrimidinyl)-5-methoxy-3-piperidinesulfonamide, (3R,5R)-N-(4-(2,6-dimethoxyphenyl)-5-(3-pyridinyl)-4H-1,2,4-triazol-3-yl)-1-(5-fluoro-2-pyrimidinyl)-5-methoxy-3-piperidinesulfonamide], the EC50 was found to be 18 nM.

Source of the values: patent US10058550B2, “Methods of treating heart failure” (priority 2015, dated 2018).
